According to ChEMBL document CHEMBL1130086, “Potent HIV protease inhibitors containing a novel (hydroxyethyl)amide isostere” (J Med Chem, 1997):
Each block holds one compound with its values, some of them ahead of it.

Key:
[1] = system: C8166; assay: Inhibitory concentration against HIV-2 rod strain in acutely infected C8166 T cells; assay type: functional, cell-based; conditions: Homo sapiens
[2] = molecular target: T1, Human immunodeficiency virus type 1 protease (Human immunodeficiency virus 1, UniProt Q72874); assay: Inhibitory concentration against recombinant HIV-1 111B protease expressed from Escherichia coli was tested by HPLC based assay
[3] = molecular target: T1, Human immunodeficiency virus type 1 protease; assay: binding affinity against HIV-1 111B strain in protease
[4] = system: Human immunodeficiency virus 1; assay: Inhibitory concentration against HIV-1 strain 111B in acutely infected C8166 T cells; assay type: functional, organism-based; conditions: Human immunodeficiency virus 1, C8166
[5] = molecular target: T1, Human immunodeficiency virus type 1 protease; assay: Inhibitory concentration against recombinant HIV-1 protease expressed in Escherichia coli was tested by HPLC based assay
[6] = molecular target: T1, Human immunodeficiency virus type 1 protease; assay: binding affinity against HIV-1 protease

Compound: CC(C)[C@H](NC(=O)c1ccc2ccccc2n1)C(=O)N[C@@H](Cc1ccccc1)[C@H](O)CN1CC[C@@H](OCc2ccncc2)C[C@H]1C(=O)NC(C)(C)C
EC50 [1]: 25 nM
IC50 [2]: 4 nM
Ki [3]: 0.031 nM
EC50 [4]: 5 nM

IC50 [5]: 3 nM
EC50 [4]: 13 nM
Compound: CCC(CC)NC(=O)C[C@@H](C(=O)NC[C@@H](O)[C@H](Cc1ccccc1)NC(=O)[C@@H](NC(=O)c1cnc2ccccc2n1)[C@H](C)O)C(C)(C)C

IC50 [5]: 3.6 nM
EC50 [4]: 7 nM
Compound: CCC(CC)NC(=O)C[C@@H](C(=O)NC[C@@H](O)[C@H](Cc1ccccc1)NC(=O)[C@@H](NC(=O)c1ccc2ccccc2n1)[C@H](C)O)C(C)(C)C

IC50 [5]: 8.2 nM
EC50 [4]: 165 nM
Compound: CCC(CC)NC(=O)C[C@@H](C(=O)NC[C@@H](O)[C@H](Cc1ccccc1)NC(=O)[C@@H](NC(=O)OCc1ccccc1)[C@H](C)O)C(C)(C)C

Compound: CC(C)[C@H](NC(=O)OCc1ccccc1)C(=O)N[C@@H](Cc1ccccc1)[C@H](O)CN1CCCC[C@H]1C(=O)NC(C)(C)C
IC50 [5]: 62 nM

Compound: CC(C)[C@H](NC(=O)OCc1ccccc1)C(=O)N[C@@H](Cc1ccccc1)[C@H](O)CNC(=O)C[C@H](C(=O)NC(C)(C)C)C(C)(C)C
IC50 [5]: 4850 nM

Compound: CCC(CC)NC(=O)C[C@@H](C(=O)NC[C@@H](O)[C@H](Cc1ccccc1)NC(=O)[C@@H](NC(=O)c1ccc2ccccc2n1)C(C)C)C(C)(C)C
IC50 [5]: 2.5 nM
Ki [6]: 0.0075 nM
EC50 [4]: 3.7 nM

Compound: CC(C)[C@H](NC(=O)OCc1ccccc1)C(=O)N[C@@H](Cc1ccccc1)[C@H](O)CNC(=O)[C@@H](CC(=O)NC(C)(C)C)C(C)(C)C
IC50 [5]: 25 nM

Compound: CC(C)(C)[C@@H](CC(=O)Nc1ccccc1)C(=O)NC[C@@H](O)[C@H](Cc1ccccc1)NC(=O)OCc1ccccc1
IC50 [5]: 14 nM

IC50 [5]: 140 nM
Compound: CC(C)[C@H](NC(=O)OCc1ccccc1)C(=O)N[C@@H](Cc1ccccc1)[C@H](O)CNC(=O)C1CCCC[C@H]1C(=O)NC(C)(C)C (some centres undefined)

Compound: CC(C)(C)[C@@H](CC(=O)NC1CCCCC1)C(=O)NC[C@@H](O)[C@H](Cc1ccccc1)NC(=O)OCc1ccccc1
IC50 [5]: 135 nM

Compound: CCC(CC)NC(=O)C[C@@H](C(=O)NC[C@@H](O)[C@H](Cc1ccccc1)NC(=O)[C@H](CC(N)=O)NC(=O)c1ccc2ccccc2n1)C(C)(C)C
IC50 [5]: 2.2 nM
EC50 [4]: 11 nM

Compound: CCC(CC)NC(=O)C[C@@H](C(=O)NC[C@@H](O)[C@H](Cc1ccccc1)NC(=O)[C@@H](NC(=O)c1cnc2ccccc2n1)C(C)C)C(C)(C)C
IC50 [5]: 2.2 nM
EC50 [4]: 5.8 nM

Compound: CC(C)[C@H](NC(=O)OCc1ccccc1)C(=O)N[C@@H](Cc1ccccc1)[C@H](O)CNC(=O)CCC(=O)NC(C)(C)C
IC50 [5]: 8250 nM

Compound: CCCC(CCC)NC(=O)C[C@@H](C(=O)NC[C@@H](O)[C@H](Cc1ccccc1)NC(=O)OCc1ccccc1)C(C)(C)C
IC50 [5]: 39 nM

Compound: CC(C)[C@H](NC(=O)OCc1ccccc1)C(=O)N[C@@H](Cc1ccccc1)[C@H](O)CNC(=O)[C@H](CC(=O)NC(C)(C)C)C(C)(C)C
IC50 [5]: 3 nM
EC50 [4]: 15 nM

Compound: CCC(CC)NC(=O)C[C@@H](C(=O)NC[C@@H](O)[C@H](Cc1ccccc1)NC(=O)[C@@H](NC(=O)OCc1ccccc1)C(C)C)C(C)(C)C
IC50 [5]: 2.9 nM
EC50 [4]: 9.3 nM

Compound: CCC(CC)NC(=O)C[C@@H](C(=O)NC[C@@H](O)[C@H](Cc1ccccc1)NC(=O)OCc1ccccc1)C(C)(C)C
IC50 [5]: 15 nM

Compound: CC(C)[C@H](NC(=O)OCc1ccccc1)C(=O)N[C@@H](Cc1ccccc1)[C@H](O)CNC(=O)C[C@@H](C(=O)NC(C)(C)C)C(C)(C)C
IC50 [5]: 125 nM

Compound: CC(C)(C)NC(=O)C[C@@H](C(=O)NC[C@@H](O)[C@H](Cc1ccccc1)NC(=O)OCc1ccccc1)C(C)(C)C
IC50 [5]: 19 nM

Compound: CCC(CC)NC(=O)C[C@@H](C(=O)NC[C@@H](O)[C@H](Cc1ccccc1)NC(=O)[C@H](CC(N)=O)NC(=O)OCc1ccccc1)C(C)(C)C
IC50 [5]: 3.8 nM
EC50 [4]: 127 nM

Compound: CC(C)[C@H](NC(=O)OCc1ccccc1)C(=O)N[C@@H](Cc1ccccc1)[C@@H](O)CNC(=O)[C@H](CC(=O)NC(C)(C)C)C(C)(C)C
IC50 [5]: 50 nM

Compound: CCC(CC)NC(=O)C[C@@H](C(=O)NC[C@@H](O)[C@H](Cc1ccccc1)NC(=O)[C@H](CC(N)=O)NC(=O)c1cnc2ccccc2n1)C(C)(C)C
IC50 [5]: 1.9 nM
EC50 [4]: 35 nM

Compound: CC(C)C(NC(=O)C[C@@H](C(=O)NC[C@@H](O)[C@H](Cc1ccccc1)NC(=O)OCc1ccccc1)C(C)(C)C)C(C)C
IC50 [5]: 58 nM

Compound: CC(C)NC(=O)C[C@@H](C(=O)NC[C@@H](O)[C@H](Cc1ccccc1)NC(=O)OCc1ccccc1)C(C)(C)C
IC50 [5]: 19 nM
